# Test results reported in patent publication US11795510B2, “Identification of epigenomic reprogramming in cancer and uses thereof” (The Johns Hopkins University, priority 2016, dated 2023).
# “Also recorded” adds a separate entry of the source.
# Legend:
# [1] = tested on: distant metastatic subclones; assay: Organotypic tumor forming assay (3D organotypic stromal cultures); type: cell-based, human
# Protocol: Organotypic tumor forming assays were adapted from Ridky et al. (P.A. Invasive three-dimensional organotypic neoplasia from multiple normal human epithelia. Nat Med 16, 1450-5 (2010)) and Andl et al. (Epidermal growth factor receptor mediates increased cell proliferation, migration, and aggregation in esophageal keratinocytes in vitro and in vivo. J Biol Chem 278, 1824-30 (2003)). Briefly, 6 well permeable transwell plates (Costar 3414) were overlayed with 1 mL type 1 collagen containing 10×DMEM (acellular layer). Human dermal fibroblasts (ATCC) were suspended (12×10^6 cells/mL) in a mixture of ice cold 10×DMEM, 10% FBS, 52.5% collagen, and 17.5% matrigel (cellular layer), thoroughly mixed, and 2 mL/well plated over the acellular layer. The mixture was allowed to partially solidify for approximately 15 minutes at 37° C., followed by triplicate injection of 1×10^6 PDAC (suspended in 20 ul DMEM) cells into the cellular layer. Cells were incubated for 24 hours in fibroblast growth media above and below the inserts to initiate contraction of the discs. […] Discs were harvested, fixed overnight in 10% formalin, […], and stained with H&E. Tumors were photographed and measured with an Olympus BX53 microscope using cellSens Standard software.
# [2] = target: T1, 6-phosphogluconate dehydrogenase (PGD) (Homo sapiens, UniProt P52209); assay: Steady state LC-HRMS metabolite profiling (glycolytic/PPP metabolites); type: cell-based
# T1 construct: endogenous in cells; host or cells: low-passage rapid-autopsy PDAC cell lines (e.g. A38Lg, A38Per, A13 subclones)
# T1 sequence (P52209 1-483): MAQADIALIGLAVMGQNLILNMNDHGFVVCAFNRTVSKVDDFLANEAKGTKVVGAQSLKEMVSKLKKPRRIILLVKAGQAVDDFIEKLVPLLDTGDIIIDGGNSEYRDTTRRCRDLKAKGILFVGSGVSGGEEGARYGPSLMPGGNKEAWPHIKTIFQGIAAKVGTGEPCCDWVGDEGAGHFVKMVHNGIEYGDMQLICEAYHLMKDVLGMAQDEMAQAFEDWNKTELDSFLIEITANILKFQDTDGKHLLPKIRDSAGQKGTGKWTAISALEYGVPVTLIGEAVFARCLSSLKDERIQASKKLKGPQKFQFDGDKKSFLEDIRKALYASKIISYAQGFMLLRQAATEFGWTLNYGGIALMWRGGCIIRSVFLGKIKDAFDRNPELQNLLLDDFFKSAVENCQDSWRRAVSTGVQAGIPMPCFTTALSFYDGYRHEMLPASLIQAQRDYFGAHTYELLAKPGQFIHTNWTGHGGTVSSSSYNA
# Protocol: Tissue samples and cell lines were previously collected from PDAC patients by rapid autopsy, sequenced-validated, and monitored for mycoplasma as previously described. Low passage (2-17) rapid autopsy cell lines were cultured at 37° C. in DMEM with 10% fetal bovine serum (FBS, Gibco). For MTT assays, 15,000 cells/well were plated into 96 well plates in triplicate, treated 12 hours later, and assayed after 24 hr (glucose responses) or 6 days (chemotherapy) with CellTiter96 (Promega). For glucose response assays, nutrient-deplete DMEM (no glucose, glutamine, pyruvate, or serum) was used with addition of glucose as indicated. […] Cells were then washed with PBS, trypsinized, and viable cells counted with a hemocytometer. Glucose uptake and lactate secretion were measured with a YSI 7100 Bioanalyzer as described in the supplementary methods. […]
# LC-HRMS Metabolite Profiling. LC-HRMS samples were prepared and analyzed as described in Liu et al. (Development and quantitative evaluation of a high-resolution metabolomics technology. Anal Chem 86, 2175-84 (2014)). […] Additional replicates were also included and counted at the end of the experiment for normalization. […] Pellets were reconstituted into a volume normalized to protein content (15 uL of 1:1 acetonitrile:methanol and 15 uL of water was used per 1 mg protein) and analyzed by LC-QE-MS. […]
smiles,measurement,setting,value
"NC(=O)c1ccc(N)nc1 [6AN, 6-aminonicotinamide]",tumor formation after injection into 3D organotypic stromal cultures,[1],selectively and strongly blocked tumor formation; also recorded: blocked
same,"steady state levels of glucose and metabolites directly upstream of the PGD reaction (6PG, G1,5L)",[2],dramatically elevated; also recorded: greatly increased
same,steady state levels of metabolites downstream of the PGD reaction,[2],corresponding reductions
